Consider 21 molecules from patent US20140081025A1, “HETEROAROMATIC RING DERIVATIVE” (TAISHO PHARMACEUTICAL CO., LTD., priority 2011, published 2014).

Experiment [1] addresses T1, human orexin 1 receptor (hOX1R) (Homo sapiens, UniProt O43613).
T1 construct: expressed in transfected cells; host or cells: Chinese hamster ovary (CHO) cells
T1 sequence (O43613 1-425): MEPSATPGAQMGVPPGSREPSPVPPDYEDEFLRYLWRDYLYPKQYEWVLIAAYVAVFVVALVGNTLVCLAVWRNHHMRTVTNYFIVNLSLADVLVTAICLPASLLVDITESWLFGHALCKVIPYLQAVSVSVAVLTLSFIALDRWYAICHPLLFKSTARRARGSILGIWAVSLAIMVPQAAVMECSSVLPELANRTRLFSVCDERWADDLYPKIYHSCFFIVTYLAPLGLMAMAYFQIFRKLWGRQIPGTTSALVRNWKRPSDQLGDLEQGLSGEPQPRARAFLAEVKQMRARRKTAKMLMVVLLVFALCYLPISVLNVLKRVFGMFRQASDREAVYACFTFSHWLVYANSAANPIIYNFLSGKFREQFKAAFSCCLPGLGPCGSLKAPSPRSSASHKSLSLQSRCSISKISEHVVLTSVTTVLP
Description: Measurement of orexin antagonist activity (intracellular Ca2+ fluorescence, FDSS) in CHO cells expressing hOX1R. It is filed as cell-based. The conditions noted are these: CHO cells forcibly expressing hOX1R; ligand (two-amino-acid-substituted human orexin-A) 300 pM; Fluo 4-AM; read-out: IC50 value OX1. The procedure: (§1) The antagonist activity of a test compound against the human orexin 1 receptor (hOX1R) or orexin 2 receptor (hOX2R) was measured by the method described in the document (Toshikatsu Okumura et al., Biochemical and Biophysical Research Communications, 280, 976-981, 2001) with appropriate modification. Chinese hamster ovary (CHO) cells forcibly expressing hOX1R or hOX2R were seeded into each well of a 96-well Black clear bottom plate (Nunc A/S) in the amount of 20000 cells per well and were cultured in a Ham's F-12 medium (Invitrogen, Inc.) containing 0.1 mM MEM non-essential amino acids (Invitrogen, Inc.), 0.5 mg/mL G418 (Invitrogen, Inc.), and 10% fetal calf serum (Invitrogen, Inc.) at 37° C. in 5% CO2 for 16 hours. The medium was removed, and then added to each well was 100 μL of an assay buffer (pH 7.4) containing 0.5 μM Fluo 4-AM ester (Dojindo Laboratories), wherein the buffer was composed of 25 mM HEPES (Dojindo Laboratories), a Hanks' balanced salt solution (Invitrogen, Inc.), 0.1% bovine serum albumin (Sigma-Aldrich Co., LLC.), 2.5 mM probenecid (Sigma-Aldrich Co., LLC.), and 200 μg/mL Amaranth (Sigma-Aldrich Co., LLC.), followed by incubation at 37° C. in 5% CO2 for 60 min. The assay buffer containing Fluo 4-AM ester was removed, and then 150 μL of an assay buffer solution containing 10 mM of the test compound dissolved in dimethyl sulfoxide was added to each well, followed by incubation for 30 min.
(§2) A peptide (Pyr-[…]NH2: Peptide Institute, Inc.), which is a ligand having substitution of two amino acids in human orexin-A, was diluted with an assay buffer to a final concentration of 300 pM for hOX1R and to a final concentration of 3 nM for hOX2R. The reaction was started by adding 50 μL of this ligand solution to each well. The reaction was monitored by measuring the fluorescence of each well at each 1 second for 3 min with a Functional Drug Screening System (FDSS manufactured by Hamamatsu Photonics K.K.), and the antagonist activity was determined based on the maximum fluorescence value as an index of the intracellular Ca^2+ concentration. The antagonist activity of a test compound was calculated by assuming that the fluorescence value of the well containing only a dilution buffer was 100% and that the fluorescence value of the well containing a buffer not containing the ligand or any test compound was 0%. The 50% inhibitory concentration (IC50 value) of a test compound was determined from fluorescence values at various concentrations of the test compound.

Experiment [2] has as its target T2, human orexin 2 receptor (hOX2R) (Homo sapiens, UniProt O43614).
T2 construct: expressed in transfected cells; host or cells: Chinese hamster ovary (CHO) cells
T2 sequence (O43614 1-444): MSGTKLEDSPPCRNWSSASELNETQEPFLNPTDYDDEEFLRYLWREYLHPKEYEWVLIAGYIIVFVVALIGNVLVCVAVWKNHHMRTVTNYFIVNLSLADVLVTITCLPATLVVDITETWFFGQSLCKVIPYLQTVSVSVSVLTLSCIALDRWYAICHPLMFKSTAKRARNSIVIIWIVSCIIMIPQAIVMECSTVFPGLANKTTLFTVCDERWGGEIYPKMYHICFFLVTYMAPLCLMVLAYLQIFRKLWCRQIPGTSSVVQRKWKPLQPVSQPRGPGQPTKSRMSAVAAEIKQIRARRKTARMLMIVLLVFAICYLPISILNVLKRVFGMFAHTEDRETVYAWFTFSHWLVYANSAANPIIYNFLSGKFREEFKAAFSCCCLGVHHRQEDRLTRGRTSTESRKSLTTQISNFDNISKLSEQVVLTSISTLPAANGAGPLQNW
Description: Measurement of orexin antagonist activity (intracellular Ca2+ fluorescence, FDSS) in CHO cells expressing hOX2R. The conditions noted are these: CHO cells forcibly expressing hOX2R; ligand (two-amino-acid-substituted human orexin-A) 3 nM; Fluo 4-AM; read-out: IC50 value OX2. It is filed as cell-based. The procedure: as §1, §2

In the case of `CCN(CCc1ccn(-c2ccc(F)cc2)n1)C(=O)c1ccccc1-n1nccn1` [Example 22, N-Ethyl-N-{2-[1-(4-fluorophenyl)-1H-pyrazol-3-yl]ethyl}-2-(2H-1,2,3-triazol-2-yl)benzamide], the IC50 – broadly, the point on the concentration scale where inhibition reaches its midpoint – in experiment [1] came to 2.2 nM; in experiment [2] it was 10.6 nM.

With `CCN(CCc1ccn(-c2cc(C(F)(F)F)ccn2)n1)C(=O)c1ccccc1-n1nccn1` [Example 26, N-ethyl-2-(2H-1,2,3-triazol-2-yl)-N-{2-{1-[4-(trifluoromethyl)pyridin-2-yl]-1H-pyrazol-3-yl}ethyl}benzamide], the IC50 was 61.1 nM in experiment [1] and 380 nM in experiment [2].

`CN(CCc1noc(-c2ccc(F)c(F)c2)n1)C(=O)c1ccccc1-n1nccn1` [Example 32, N-{2-[5-(3,4-difluorophenyl)-1,2,4-oxadiazol-3-yl]ethyl}-N-methyl-2-(2H-1,2,3-triazol-2-yl) benzamide]: the values for the IC50 in experiment [1] and in experiment [2] were 14.8 nM and 133 nM, respectively.

In the case of `CCN(CCc1cc(-c2ccc(F)cn2)on1)C(=O)c1cc(C)ccc1-n1nccn1` [Example 10, N-Ethyl-N-{2-[5-(5-fluoropyridin-2-yl)-1,2-oxazol-3-yl]ethyl}-5-methyl-2-(2H-1,2,3-triazol-2-yl)benzamide], the results for the IC50 in experiment [1] and in experiment [2] were 1.8 nM and 21.3 nM, respectively.

As for `CCN(CCc1ccn(-c2ccc(F)cn2)n1)C(=O)c1cc(C)ccc1-c1ncccn1` [Example 6, N-Ethyl-N-{2-[1-(5-fluoropyridin-2-yl)-1H-pyrazol-3-yl]ethyl}-5-methyl-2-(pyrimidin-2-yl)benzamide], the 50% inhibitory concentration (IC50) in experiment [1] was 7.1 nM; in experiment [2], 13.7 nM.

With `CCN(CCc1noc(-c2ccc(F)cn2)n1)C(=O)c1ccccc1-n1nccn1` [Example 44, N-ethyl-N-{2-[5-(5-fluoropyridin-2-yl)-1,2,4-oxadiazol-3-yl]ethyl}-2-(2H-1,2,3-triazol-2-yl) benzamide], the IC50 in experiment [1] worked out at 791 nM; in experiment [2], 613 nM.

In the case of `CN(CCc1noc(-c2ccc(F)cc2)n1)C(=O)c1ccccc1-n1nccn1` [Example 31, N-{2-[5-(4-Fluorophenyl)1,2,4-oxadiazol-3-yl]ethyl}-N-methyl-2-(2H-1,2,3-triazol-2-yl)benzamide], the results for the IC50 in experiment [1] and in experiment [2] were 11.6 nM and 114 nM, respectively.

In the case of `CCN(CCc1noc(-c2ccc(F)c(F)c2)n1)C(=O)c1cc(C)ccc1-n1nccn1` [Example 37, N-ethyl-N-{2-[5-(3,4-difluorophenyl)-1,2,4-oxadiazol-3-yl]ethyl}-5-methyl-2-(2H-1,2,3-triazol-2-yl)benzamide], the IC50 worked out at 1.1 nM in experiment [1] and 2 nM in experiment [2].

For `CCN(CCc1ccn(-c2ccc(F)cn2)n1)C(=O)c1c(F)cccc1-c1ncccn1` [Example 21, N-ethyl-2-fluoro-N-{2-[1-(5-fluoropyridin-2-yl)-1H-pyrazol-3-yl]ethyl}-6-(pyrimidin-2-yl) benzamide], the IC50 came out at 11.6 nM in experiment [1] and 50.8 nM in experiment [2].

With `Cc1ccc(-n2nccn2)c(C(=O)N(C)CCc2noc(-c3ccc(F)cn3)n2)c1` [Example 34, N-{2-[5-(5-fluoropyridin-2-yl)-1,2,4-oxadiazol-3-yl]ethyl}-N,5-dimethyl-2-(2H-1,2,3-triazol-2-yl)benzamide], the IC50 in experiment [1] turned out to be 83.4 nM; in experiment [2], 119 nM.

As to `Cc1ccc(-n2nccn2)c(C(=O)N(C)CCc2noc(-c3ccc(F)cc3)n2)c1` [Example 35, N-{2-[5-(4-fluorophenyl)-1,2,4-oxadiazol-3-yl]ethyl}-N,5-dimethyl-2-(2H-1,2,3-triazol-2-yl) benzamide], the IC50 in experiment [1] amounted to 2.4 nM; in experiment [2] it was 13.9 nM.

Regarding `CCN(CCc1ccn(-c2ccc(F)cn2)n1)C(=O)c1ccc(F)cc1-n1nccn1` [Example 17, N-Ethyl-4-fluoro-N-{2-[1-(5-fluoropyridin-2-yl)-1H-pyrazol-3-yl]ethyl}-2-(2H-1,2,3-triazol-2-yl)benzamide], the IC50 in experiment [1] was found to be 0.4 nM; in experiment [2], 2.8 nM.

As for `CCN(CCc1ccn(-c2ccc(F)cn2)n1)C(=O)c1ccccc1-n1nccn1` [Example 4, N-Ethyl-N-{2-[1-(5-fluoropyridin-2-yl)-1H-pyrazol-3-yl]ethyl}-2-(2H-1,2,3-triazol-2-yl)benzamide], the IC50 in experiment [1] worked out at 0.5 nM; in experiment [2], 2.4 nM.

`CCN(CCc1cnn(-c2ccc(F)cn2)c1)C(=O)c1cc(C)ccc1-n1nccn1` [Example 1, N-Ethyl-N-{2-[1-(5-fluoropyridin-2-yl)-1H-pyrazol-4-yl]ethyl}-5-methyl-2-(2H-1,2,3-triazol-2-yl)benzamide]: the IC50 in experiment [1] was determined as 1.8 nM; in experiment [2] it was 5.2 nM.

With `Cc1ccc(-n2nccn2)c(C(=O)N(C)CCc2ccn(-c3ccc(F)cn3)n2)c1` [Example 5, N-{2-[1-(5-Fluoropyridin-2-yl)-1H-pyrazol-3-yl]ethyl}-N,5-dimethyl-2-(2H-1,2,3-triazol-2-yl)benzamide], the IC50 in experiment [1] was found to be 2.1 nM; in experiment [2] it was 8 nM.

Regarding `CCN(CCc1ccn(-c2ccc(F)cn2)n1)C(=O)c1ccccc1-c1ncccn1` [Example 19, N-ethyl-N-{2-[1-(5-fluoropyridin-2-yl)-1H-pyrazol-3-yl]ethyl}-2-(pyrimidin-2-yl) benzamide], the IC50 in experiment [1] came to 0.9 nM; in experiment [2], 7.4 nM.

Regarding `CN(CCc1noc(-c2ccc(F)cn2)n1)C(=O)c1ccccc1-n1nccn1` [Example 33, N-{2-[5-(5-fluoropyridin-2-yl)-1,2,4-oxadiazol-3-yl]ethyl}-N-methyl-2-(2H-1,2,3-triazol-2-yl) benzamide], the IC50 in experiment [1] was found to be 1190 nM; in experiment [2], 2530 nM.

As for `CCN(CCc1cc(-c2ccc(F)cn2)no1)C(=O)c1cc(C)ccc1-n1nccn1` [Example 11, N-Ethyl-N-{2-[3-(5-fluoropyridin-2-yl)-1,2-oxazol-5-yl]ethyl}-5-methyl-2-(2H-1,2,3-triazol-2-yl)benzamide], the IC50 is 17 nM in experiment [1] and 26.4 nM in experiment [2].

For the molecule `CCN(CCc1ccn(-c2ccc(F)cn2)n1)C(=O)c1c(F)cccc1-n1nccn1` [Example 18, N-ethyl-2-fluoro-N-{2-[1-(5-fluoropyridin-2-yl)-1H-pyrazol-3-yl]ethyl}-2-(2H-1,2,3-triazol-2-yl) benzamide], the IC50 was 1.6 nM in experiment [1] and 6.3 nM in experiment [2].

`CCN(CCc1ccn(-c2cccc(C(F)(F)F)n2)n1)C(=O)c1ccccc1-n1nccn1` [Example 24, N-ethyl-2-(2H-1,2,3-triazol-2-yl)-N-(2-{1-[6-(trifluoromethyl)pyridin-2-yl]-1H-pyrazol-3-yl}ethyl)benzamide]: the IC50 in experiment [1] was determined as 17.8 nM; in experiment [2] it was 24.8 nM.

Regarding `CCN(CCc1ccn(-c2ccc(F)c(F)c2)n1)C(=O)c1ccccc1-n1nccn1` [Example 25, N-{2-[1-(3,4-difluorophenyl)-1H-pyrazol-3-yl]ethyl}-N-ethyl-2-(2H-1,2,3-triazol-2-yl) benzamide], the IC50 in experiment [1] came out at 1.6 nM; in experiment [2], 3.3 nM.
